The source of these data is PubChem BioAssay (NCI).

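Five concentrations, 48 hours, 96-well plates. The concentration for 50% growth inhibition is given as GI50. TGI: concentration producing complete growth inhibition.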

Some test systems named below: T-47D breast; SN12C renal; CAKI-1 renal; RXF 393 renal; MOLT-4 leukemia; TK-10 renal; M14 melanoma; SK-MEL-28 melanoma.
Test in all cases: DTP human tumour cell line panel, 48 h

For `Cc1cc[c]([Sb]2[O]C(CO)C(C(O)C(O)C(=O)O)[O]2)cc1` (stereo not drawn), the GI50 in the experiment on T-47D breast was above 100 µM; in the experiment on SN12C renal, 51.9 µM; with CAKI-1 renal, above 100 µM; in the experiment on RXF 393 renal it was 28.2 µM; in the experiment with MOLT-4 leukemia, 78.7 µM; with M14 melanoma it was 90 µM. Further, the GI50 in the experiment with SK-MEL-28 melanoma is 39.6 µM. The concentration for total growth inhibition (TGI) in the experiment with T-47D breast is above 100 µM; with SN12C renal, above 100 µM; in the experiment on CAKI-1 renal, above 100 µM; in the experiment on RXF 393 renal it was 84.7 µM; with MOLT-4 leukemia, above 100 µM; with TK-10 renal it was 0.58 µM. Besides, the TGI in the experiment on M14 melanoma and in the experiment on SK-MEL-28 melanoma was above 100 µM throughout.

As for `Clc1ccc(NCNC2Nc3ccccc3N2)cc1Cl`, the TGI in the experiment on T-47D breast, in the experiment with SN12C renal, in the experiment on CAKI-1 renal, in the experiment with RXF 393 renal, in the experiment with MOLT-4 leukemia and in the experiment with TK-10 renal was above 100 µM each time. Also, the TGI in the experiment with M14 melanoma and with SK-MEL-28 melanoma was above 100 µM throughout.

Consider `O=C(Nc1ccc(Nc2ccc3c(c2)C(=O)c2ccccc2C3=O)c2c1C(=O)c1ccccc1C2=O)c1ccccc1`, for which the concentration for total growth inhibition (TGI) with T-47D breast was above 100 µM; in the experiment with SN12C renal it was above 100 µM; in the experiment with CAKI-1 renal, above 100 µM; with RXF 393 renal it was above 96.6 µM; in the experiment on MOLT-4 leukemia, above 69.3 µM; in the experiment with TK-10 renal it was above 100 µM. The TGI with M14 melanoma and in the experiment with SK-MEL-28 melanoma was above 100 µM in each case.

For the molecule `CC(C)CC(NC(=O)C(O)C(N)Cc1ccccc1)C(=O)O` (stereo not drawn), the TGI in the experiment on T-47D breast, in the experiment with SN12C renal, in the experiment with CAKI-1 renal, with RXF 393 renal, with MOLT-4 leukemia and in the experiment with TK-10 renal was above 100 µM throughout. In addition, the TGI in the experiment on M14 melanoma and in the experiment on SK-MEL-28 melanoma was above 100 µM each time.

For the molecule `COc1ccc(-c2cc(=O)c3c(C)ccnc3[nH]2)cc1`, the TGI in the experiment with T-47D breast was above 100 µM; in the experiment with SN12C renal, above 100 µM; in the experiment on CAKI-1 renal, above 100 µM; in the experiment on RXF 393 renal it was 41.6 µM; in the experiment with MOLT-4 leukemia, 50 µM; with TK-10 renal, above 100 µM. In addition, the concentration for total growth inhibition (TGI) with M14 melanoma and in the experiment on SK-MEL-28 melanoma was above 100 µM in each case.

In the case of `COc1cccc(C2CC(C)(O)Oc3cc4c(cc32)OCO4)c1` (stereo not drawn), the TGI was above 100 µM in the experiment with T-47D breast; above 100 µM in the experiment with SN12C renal; above 100 µM with CAKI-1 renal; above 100 µM in the experiment with RXF 393 renal; 60.5 µM with MOLT-4 leukemia; 80.2 µM in the experiment with TK-10 renal. For the same molecule, the TGI in the experiment on M14 melanoma and in the experiment on SK-MEL-28 melanoma was above 100 µM throughout.

For `COc1cc(OC)c(OC)cc1/C=C/c1ccccn1`, the TGI in the experiment with T-47D breast, in the experiment with SN12C renal, in the experiment with CAKI-1 renal, in the experiment with RXF 393 renal, in the experiment on MOLT-4 leukemia and with TK-10 renal was above 10 µM each time. Moreover, the TGI with M14 melanoma and with SK-MEL-28 melanoma was above 10 µM in each case.

Turning to `CCn1c(-c2nonc2N)nc2cnc(Oc3cccc(NC(=O)c4ccc(OCCN5CCOCC5)cc4)c3)cc21`, the GI50 in the experiment on T-47D breast is 1.94 µM; with SN12C renal, 6.26 µM; in the experiment on CAKI-1 renal it was 0.116 µM; in the experiment on RXF 393 renal, 1.31 µM; in the experiment with MOLT-4 leukemia it was 4.29 µM; in the experiment with TK-10 renal, 0.564 µM. Moreover, the GI50 was 12.7 µM in the experiment on M14 melanoma and above 20.1 µM in the experiment with SK-MEL-28 melanoma. Moreover, the TGI was above 25 µM in the experiment on T-47D breast; above 25 µM with SN12C renal; above 17.9 µM with CAKI-1 renal; 12.9 µM in the experiment with RXF 393 renal; 24.4 µM in the experiment with MOLT-4 leukemia; 13.7 µM with TK-10 renal. Also, the total growth inhibition concentration (TGI) in the experiment on M14 melanoma and in the experiment on SK-MEL-28 melanoma was above 25 µM each time.

Regarding `N#CSc1c[nH]c2ccc(/C=C/C(=O)/C=C(O)/C=C/c3ccc4[nH]cc(SC#N)c4c3)cc12`, the GI50 with T-47D breast was 1.97 µM; with SN12C renal, 1.92 µM; in the experiment on CAKI-1 renal, 1.58 µM; with RXF 393 renal, 0.538 µM; in the experiment on MOLT-4 leukemia it was 1.61 µM; in the experiment with TK-10 renal it was 3.35 µM. The GI50 is 0.864 µM in the experiment on M14 melanoma and 2 µM in the experiment on SK-MEL-28 melanoma. Also, the total growth inhibition concentration (TGI) with T-47D breast is 8.82 µM; in the experiment on SN12C renal, 10.9 µM; with CAKI-1 renal it was 4.1 µM; with RXF 393 renal, 2.93 µM; with MOLT-4 leukemia, 5.44 µM; in the experiment with TK-10 renal, 23.8 µM. Also, the TGI with M14 melanoma turned out to be 3.58 µM; with SK-MEL-28 melanoma it was 5.76 µM.

Take `C=C1C(=O)O[C@@H]2C[C@@]3(C)CCC[C@H](C)C3=C[C@H]12` (tested in a mixture with another compound): the TGI with T-47D breast came to 3.18 µM; in the experiment on SN12C renal, 3.44 µM; in the experiment on CAKI-1 renal it was 3.57 µM; in the experiment on RXF 393 renal, 4.07 µM; in the experiment with MOLT-4 leukemia, 3.73 µM; in the experiment on TK-10 renal it was 6.92 µM. For the same molecule, the TGI in the experiment with M14 melanoma came out at 2.75 µM; in the experiment with SK-MEL-28 melanoma, 5.13 µM.

Take `COc1ccc(-c2nn3ncccc3c2-c2ccnc(Nc3ccc(F)c(F)c3)n2)cc1`: the GI50 was 6.42 µM in the experiment with T-47D breast; 10.4 µM in the experiment with SN12C renal; 7.65 µM in the experiment on CAKI-1 renal; 7.45 µM in the experiment with RXF 393 renal; 8.45 µM with MOLT-4 leukemia; 14.3 µM with TK-10 renal. The GI50 with M14 melanoma was 9.61 µM; in the experiment on SK-MEL-28 melanoma it was 17.8 µM. Besides, the TGI in the experiment with T-47D breast is above 25 µM; with SN12C renal it was above 25 µM; in the experiment with CAKI-1 renal, above 23.4 µM; in the experiment with RXF 393 renal, above 25 µM; in the experiment with MOLT-4 leukemia, above 25 µM; with TK-10 renal it was above 25 µM. The TGI with M14 melanoma and with SK-MEL-28 melanoma was above 25 µM in each case.

On to `O=C(O)c1c2c(c(O)c3c1CN(C1CCCCC1)CO3)OCN(C1CCCCC1)C2`, for which the TGI is above 100 µM in the experiment with T-47D breast; 72.9 µM in the experiment on SN12C renal; above 100 µM in the experiment with CAKI-1 renal; above 100 µM in the experiment with RXF 393 renal; 40.1 µM with MOLT-4 leukemia; above 100 µM in the experiment with TK-10 renal. Also, the concentration for total growth inhibition (TGI) in the experiment with M14 melanoma and in the experiment on SK-MEL-28 melanoma was above 100 µM in each case.

For the molecule `C=C(C)[C@@H]1CC[C@]2(C(=O)OC)CC[C@]3(C)[C@H](CC[C@@H]4[C@@](C)(CCc5nn[nH]n5)[C@H](C(=C)C)CC[C@]43C)[C@@H]12`, the GI50 in the experiment with T-47D breast is 15.2 µM; in the experiment on SN12C renal, 14.7 µM; with CAKI-1 renal, 10.2 µM; in the experiment on RXF 393 renal it was 15.7 µM; with MOLT-4 leukemia, 11.7 µM; in the experiment on TK-10 renal it was 30.9 µM. The GI50 is 27.5 µM in the experiment on M14 melanoma and 12.9 µM with SK-MEL-28 melanoma. For the same molecule, the TGI in the experiment with T-47D breast is 84.3 µM; in the experiment on SN12C renal it was 32.8 µM; with CAKI-1 renal it was 35 µM; in the experiment with RXF 393 renal it was 30.1 µM; in the experiment on MOLT-4 leukemia, 40.8 µM; with TK-10 renal, above 100 µM. For the same molecule, the TGI is above 100 µM with M14 melanoma and 27.8 µM in the experiment with SK-MEL-28 melanoma.

As usually defined, the GI50 is the concentration at which growth is held to half of that of the control. The TGI is the concentration giving total growth inhibition. Higher therefore signals lower sensitivity of the cells.
